Experimental data reported in ChEMBL document CHEMBL1201862, “PubChem BioAssay data set” (2004).
The source made the active and inactive calls.

How the values were obtained:
[1] = biological target: Induced myeloid leukemia cell differentiation protein Mcl-1 (Homo sapiens, UniProt Q07820); type: functional
[2] = growth suppression of PTEN-null colon cells, dose response, cell-based, HCT116 PTEN knockout (AID 1047); type: functional;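 further: HCT116 colon tumor cells with PTEN knocked out; cells exposed to compound for 60 hours before readout; potency for loss of cell viability measured by luminescence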
[3] = microbe, parasite or virus in culture; type: functional; settings: Mycobacterium tuberculosis
[4] = growth suppression of beta-catenin-knockout colon cells, dose response, cell-based, HCT116, human colon tumor (AID 1045); type: functional;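 further: HCT116 colon tumor cells with beta catenin knocked out; cells exposed to compound for 60 hours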
Large T antigen = Large T antigen (Simian virus 40, UniProt P03070); type: functional, Betapolyomavirus macacae;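 further: Confirmatory-stage PubChem screen for compounds that inhibit SV40 T antigen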
[5] = biological target: T1, Rac GTPase-activating protein 1 (Homo sapiens, UniProt Q9H0H5); test: MgcRacGAP GTPase-activating activity inhibitors, confirmation, biochemical, ADP Hunter fluorescence, primary and confirmatory (AID 624330); type: functional
T1 sequence (Q9H0H5 whole entry): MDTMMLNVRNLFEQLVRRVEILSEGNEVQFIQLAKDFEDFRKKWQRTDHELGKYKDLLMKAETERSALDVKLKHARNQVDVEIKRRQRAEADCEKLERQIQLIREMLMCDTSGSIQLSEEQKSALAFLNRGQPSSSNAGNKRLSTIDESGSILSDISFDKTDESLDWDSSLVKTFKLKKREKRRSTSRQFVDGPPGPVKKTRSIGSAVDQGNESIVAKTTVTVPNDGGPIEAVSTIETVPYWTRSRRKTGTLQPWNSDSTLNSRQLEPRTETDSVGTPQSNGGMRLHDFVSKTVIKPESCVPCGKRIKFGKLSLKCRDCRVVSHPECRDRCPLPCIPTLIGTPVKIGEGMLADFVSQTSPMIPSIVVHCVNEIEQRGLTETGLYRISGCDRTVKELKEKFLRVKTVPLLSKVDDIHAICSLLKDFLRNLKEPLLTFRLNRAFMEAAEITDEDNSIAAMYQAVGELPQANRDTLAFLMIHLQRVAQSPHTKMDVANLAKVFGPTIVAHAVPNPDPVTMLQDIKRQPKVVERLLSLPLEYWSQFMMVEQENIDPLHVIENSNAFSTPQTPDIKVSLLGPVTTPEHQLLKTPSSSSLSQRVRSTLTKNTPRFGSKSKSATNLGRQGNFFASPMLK

[6] = biological target: T2, Short transient receptor potential channel 4 (Mus musculus, UniProt Q9QUQ5); test: mouse TRPC4 channel activators, dose response, cell-based, HEK293 TRPC4/mu-opioid, Fluo-4 calcium (AID 434937); type: functional
T2 sequence (Q9QUQ5 whole entry): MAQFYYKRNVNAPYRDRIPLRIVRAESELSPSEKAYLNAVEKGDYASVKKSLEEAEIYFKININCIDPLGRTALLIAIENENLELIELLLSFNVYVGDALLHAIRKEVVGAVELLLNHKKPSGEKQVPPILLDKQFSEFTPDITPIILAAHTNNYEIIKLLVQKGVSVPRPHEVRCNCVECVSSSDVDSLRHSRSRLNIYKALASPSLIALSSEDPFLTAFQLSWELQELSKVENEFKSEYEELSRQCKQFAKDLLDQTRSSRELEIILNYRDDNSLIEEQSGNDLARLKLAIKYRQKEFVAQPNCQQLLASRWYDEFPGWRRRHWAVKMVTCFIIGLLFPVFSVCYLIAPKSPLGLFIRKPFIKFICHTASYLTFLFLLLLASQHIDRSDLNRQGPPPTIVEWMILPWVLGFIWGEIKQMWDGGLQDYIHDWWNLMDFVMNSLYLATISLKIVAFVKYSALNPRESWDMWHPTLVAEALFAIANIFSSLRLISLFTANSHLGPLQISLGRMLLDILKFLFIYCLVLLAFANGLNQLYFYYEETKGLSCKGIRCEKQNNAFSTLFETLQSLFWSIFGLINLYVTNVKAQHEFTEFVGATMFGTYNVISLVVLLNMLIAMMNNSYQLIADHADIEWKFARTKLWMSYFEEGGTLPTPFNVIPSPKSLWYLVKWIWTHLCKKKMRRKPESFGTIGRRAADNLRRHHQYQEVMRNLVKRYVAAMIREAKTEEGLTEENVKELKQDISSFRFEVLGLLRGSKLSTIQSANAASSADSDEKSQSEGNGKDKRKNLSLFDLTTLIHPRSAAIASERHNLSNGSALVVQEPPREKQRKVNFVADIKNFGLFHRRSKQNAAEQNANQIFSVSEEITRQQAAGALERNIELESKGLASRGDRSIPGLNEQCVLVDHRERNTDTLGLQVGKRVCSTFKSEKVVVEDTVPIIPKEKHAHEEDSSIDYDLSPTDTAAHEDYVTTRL

[7] = biological target: T3, Mannose-6-phosphate isomerase (Homo sapiens, UniProt P34949); test: human PMI inhibitors, high substrate, primary screen, biochemical, fluorescence intensity, high mannose 6-phosphate (AID 1220)
T3 sequence (P34949 whole entry): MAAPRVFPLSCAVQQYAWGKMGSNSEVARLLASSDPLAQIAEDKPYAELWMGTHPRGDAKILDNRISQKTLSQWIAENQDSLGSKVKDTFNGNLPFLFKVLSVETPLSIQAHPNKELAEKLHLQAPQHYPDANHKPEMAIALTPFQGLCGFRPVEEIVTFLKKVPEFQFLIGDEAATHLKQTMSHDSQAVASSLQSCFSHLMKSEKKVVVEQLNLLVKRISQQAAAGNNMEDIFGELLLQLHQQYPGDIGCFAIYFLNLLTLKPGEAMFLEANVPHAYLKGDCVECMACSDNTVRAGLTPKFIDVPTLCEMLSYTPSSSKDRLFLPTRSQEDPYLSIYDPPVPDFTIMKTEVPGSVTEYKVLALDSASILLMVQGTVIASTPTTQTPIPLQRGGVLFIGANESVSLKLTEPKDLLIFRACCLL

[8] = tested on: Streptococcus sp. 'group A'; test: growth inhibition of control SK(-) GAS strain, dose response, counter-screen for streptokinase expression inhibitor project, luminescence, kanamycin, BacTiterGlo, confirmation (AID 1900); type: functional, organism-based
Streptococcus = test: Group A Streptococcus viability loss, dose response, counter-screen for streptokinase expression inhibitor project, luminescence, BacTiterGlo (AID 1915); type: functional, organism-based;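 further: potency for reduction of bacterial viability or growth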
Streptokinase A = biological target: T4, Streptokinase A (Streptococcus pyogenes serotype M1, UniProt P10520); test: S. pyogenes streptokinase expression inhibitors, potency, dose response, plasminogen activation absorbance, OD405 (AID 1914); type: functional, Streptococcus pyogenes M1 GAS;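 further: secreted streptokinase activity via plasminogen activation per viability signal from cell pellet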
T4 sequence (P10520 whole entry): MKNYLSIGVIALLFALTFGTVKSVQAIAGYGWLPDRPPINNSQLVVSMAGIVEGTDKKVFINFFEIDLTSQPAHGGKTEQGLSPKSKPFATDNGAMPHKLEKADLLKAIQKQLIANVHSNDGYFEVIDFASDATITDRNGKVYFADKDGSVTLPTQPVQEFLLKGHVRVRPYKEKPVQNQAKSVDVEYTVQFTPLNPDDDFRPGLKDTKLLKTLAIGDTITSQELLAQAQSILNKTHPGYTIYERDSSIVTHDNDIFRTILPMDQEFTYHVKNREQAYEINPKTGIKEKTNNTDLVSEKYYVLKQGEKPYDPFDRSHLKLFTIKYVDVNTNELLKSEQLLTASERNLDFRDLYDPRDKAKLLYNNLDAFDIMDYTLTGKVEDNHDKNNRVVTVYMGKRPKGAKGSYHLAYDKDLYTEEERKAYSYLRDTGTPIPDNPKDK

Nonstructural protein 1 = Nonstructural protein 1 (Influenza A virus, UniProt Q194T2); type: functional, Influenza A virus (A/California/07/2009(H1N1))
[9] = biological target: T5, Histone-lysine N-methyltransferase NSD2 (Homo sapiens, UniProt O96028); type: biochemical
T5 sequence (O96028 whole entry): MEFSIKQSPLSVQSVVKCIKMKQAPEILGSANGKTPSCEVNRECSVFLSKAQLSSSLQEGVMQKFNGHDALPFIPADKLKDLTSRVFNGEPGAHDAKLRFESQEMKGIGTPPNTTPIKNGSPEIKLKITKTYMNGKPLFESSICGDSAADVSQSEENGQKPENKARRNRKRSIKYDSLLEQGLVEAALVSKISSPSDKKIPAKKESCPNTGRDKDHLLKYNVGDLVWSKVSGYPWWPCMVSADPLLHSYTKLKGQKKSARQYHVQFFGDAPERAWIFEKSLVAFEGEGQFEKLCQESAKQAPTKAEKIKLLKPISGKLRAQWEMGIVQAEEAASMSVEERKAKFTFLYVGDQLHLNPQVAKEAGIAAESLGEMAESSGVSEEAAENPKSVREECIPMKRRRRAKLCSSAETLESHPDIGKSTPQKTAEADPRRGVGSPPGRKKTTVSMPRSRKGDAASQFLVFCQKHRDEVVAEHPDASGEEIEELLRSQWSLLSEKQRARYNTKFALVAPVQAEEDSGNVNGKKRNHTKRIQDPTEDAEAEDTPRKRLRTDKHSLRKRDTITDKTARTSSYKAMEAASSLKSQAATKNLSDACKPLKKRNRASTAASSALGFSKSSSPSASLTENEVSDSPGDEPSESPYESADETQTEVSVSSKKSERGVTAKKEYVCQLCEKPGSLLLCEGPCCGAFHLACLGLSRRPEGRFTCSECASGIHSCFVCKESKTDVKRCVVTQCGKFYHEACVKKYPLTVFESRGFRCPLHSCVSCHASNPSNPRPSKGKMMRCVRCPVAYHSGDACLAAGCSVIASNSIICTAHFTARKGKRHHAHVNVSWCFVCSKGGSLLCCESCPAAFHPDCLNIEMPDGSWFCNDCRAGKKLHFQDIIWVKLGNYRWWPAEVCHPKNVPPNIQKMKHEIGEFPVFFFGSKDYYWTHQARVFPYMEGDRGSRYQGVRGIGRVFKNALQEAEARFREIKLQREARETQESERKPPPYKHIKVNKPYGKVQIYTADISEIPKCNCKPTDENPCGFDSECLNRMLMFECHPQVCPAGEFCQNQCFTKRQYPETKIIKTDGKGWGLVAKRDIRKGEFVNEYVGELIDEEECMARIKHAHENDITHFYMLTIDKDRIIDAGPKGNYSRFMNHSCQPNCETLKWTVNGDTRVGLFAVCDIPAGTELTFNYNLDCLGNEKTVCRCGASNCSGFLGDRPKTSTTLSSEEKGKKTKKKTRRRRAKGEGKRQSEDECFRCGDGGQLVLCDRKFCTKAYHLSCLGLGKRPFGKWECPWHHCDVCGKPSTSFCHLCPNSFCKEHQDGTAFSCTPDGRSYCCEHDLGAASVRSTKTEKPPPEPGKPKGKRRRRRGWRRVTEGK

Chain of Large T antigen (P03070 whole entry): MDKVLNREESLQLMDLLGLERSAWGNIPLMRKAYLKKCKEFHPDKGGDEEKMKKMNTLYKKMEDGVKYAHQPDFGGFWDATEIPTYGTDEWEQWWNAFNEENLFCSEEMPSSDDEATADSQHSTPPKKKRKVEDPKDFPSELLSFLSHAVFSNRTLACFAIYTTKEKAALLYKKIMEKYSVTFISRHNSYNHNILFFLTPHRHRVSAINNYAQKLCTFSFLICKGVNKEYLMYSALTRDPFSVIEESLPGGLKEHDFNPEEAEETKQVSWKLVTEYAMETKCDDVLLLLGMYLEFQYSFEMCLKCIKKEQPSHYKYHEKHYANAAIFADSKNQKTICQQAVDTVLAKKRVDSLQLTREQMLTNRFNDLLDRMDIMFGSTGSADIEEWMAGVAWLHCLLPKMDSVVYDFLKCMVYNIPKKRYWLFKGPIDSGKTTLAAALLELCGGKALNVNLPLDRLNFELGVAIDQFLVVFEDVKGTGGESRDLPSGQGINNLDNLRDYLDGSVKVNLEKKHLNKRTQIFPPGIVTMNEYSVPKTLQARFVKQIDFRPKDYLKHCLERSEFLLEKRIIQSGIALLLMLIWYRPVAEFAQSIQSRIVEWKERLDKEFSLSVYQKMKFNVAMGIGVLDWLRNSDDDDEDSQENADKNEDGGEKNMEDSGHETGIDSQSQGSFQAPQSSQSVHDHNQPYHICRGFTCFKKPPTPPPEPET
Chain of Induced myeloid leukemia cell differentiation protein Mcl-1 (Q07820 whole entry): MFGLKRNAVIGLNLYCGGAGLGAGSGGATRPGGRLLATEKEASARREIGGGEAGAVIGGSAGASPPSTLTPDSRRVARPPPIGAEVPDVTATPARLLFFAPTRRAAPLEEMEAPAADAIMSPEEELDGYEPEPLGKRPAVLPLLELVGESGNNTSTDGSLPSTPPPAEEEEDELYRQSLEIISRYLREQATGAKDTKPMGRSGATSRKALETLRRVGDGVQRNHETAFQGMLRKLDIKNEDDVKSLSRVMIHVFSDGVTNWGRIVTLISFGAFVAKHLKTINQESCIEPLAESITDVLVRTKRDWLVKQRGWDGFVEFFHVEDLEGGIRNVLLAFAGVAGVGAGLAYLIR
Chain of Nonstructural protein 1 (Q194T2 whole entry): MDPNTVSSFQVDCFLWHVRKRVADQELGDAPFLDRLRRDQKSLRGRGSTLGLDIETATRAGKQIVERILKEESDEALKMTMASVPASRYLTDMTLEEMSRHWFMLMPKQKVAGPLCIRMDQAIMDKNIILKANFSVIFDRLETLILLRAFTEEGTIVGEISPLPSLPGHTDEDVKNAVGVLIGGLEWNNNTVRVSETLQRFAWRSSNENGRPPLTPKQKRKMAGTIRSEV

COc1ccc(N2CCN(C(=O)c3ccc(CSc4ccccc4)cc3)CC2)cc1
IC50 [1]: 4.83 µM (not active)

Cc1cncn1CCc1nc2c3ccccc3nc(SCC(=O)Nc3cccc(Cl)c3)n2n1
EC50 [2]: 13.3 µM (active) | CC50 [3]: 14.3 µM (active) | EC50 [4]: 10.7 µM (active)

CCOc1ccc(/C=N/n2nnnc2N)cc1O
IC50 (Large T antigen): 9.64 µM (active)

CC(C)(C)c1cc(C(=O)N/N=C/c2ccc(O)cc2)n(-c2ccccc2)n1
IC50 (Large T antigen): 46.2 µM (active) | IC50 [5]: 122 µM (active)

CCC(=O)N1CCc2cc(Br)cc(S(=O)(=O)NCCCN(C)Cc3ccccc3)c21
EC50 [6]: 0.0947 µM (active)

COc1ccc(CNCCc2c[nH]c3ccccc23)cc1OC
EC50 [6]: 5.96 µM (active)

N=C(N)NN=C1CCCCCCCCCCC1
EC50 [6]: 7.5 µM (active)

Nc1cc2nc[nH]c2cc1N
IC50 [7]: > 50 µM (not active) | IC50 [1]: > 54 µM (not active)

CC(=O)O[C@H]1C[C@@]2(C)[C@@H](C[C@@H](O)[C@H]3[C@@]4(C)CC[C@@H](O)[C@@H](C)[C@@H]4CC[C@@]32C)/C1=C(\CCC=C(C)C)C(=O)O
EC50 [8]: 0.161 µM (active) | EC50 (Streptococcus): 0.947 µM (active) | IC50 (Large T antigen): 20.4 µM (active) | EC50 (Streptokinase A): 0.362 µM (active)

COc1ccc(NC(=O)CSC2=C(C#N)C(c3ccco3)C(C(=O)Nc3nc4ccccc4s3)=C(C)N2)cc1 (configuration not stated)
CC50 [3]: > 40 µM (active)

CCOC(=O)c1cc(C)n(CCc2c[nH]cn2)c1C
EC50 [6]: 0.0533 µM (active)

CN(C)c1cccc2c1C(=O)c1ccccc1C2=O
IC50 (Nonstructural protein 1): 10.1 µM (active) | AC50 [9]: 5.57 µM (active)

Cc1ccccc1N=C(S)NCCc1ccccn1
EC50 [6]: 5.31 µM (active)

Oc1ccc(/C=N/Nc2ccc(C(F)(F)F)cn2)cc1O
IC50 (Large T antigen): 48.3 µM (active)
